These compounds were tested on Alopecurus myosuroides (ALOMY) (assay: Example B pre-emergence herbicidal activity, glasshouse pot test). Conditions: 312 h, rate 250 g/ha, evaluated after 13 days, read-out: Pre-emergence activity ALOMY (100=total damage to plant; 0=no damage to plant).
Type: in vivo
Procedure, shortened: (§1)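 Pot-grown plants sprayed one day after sowing (pre-emergence) or after 8 days (post-emergence) with compound in acetone/water 50:50 containing 0.5% Tween 20. Glasshouse at 24/16 °C day/night, 14 h light, 65% humidity; damage scored after 13 days, 0 = none to 100 = total.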

Row | SMILES | pest or weed control at 250 g/ha
1 | CCc1ccc(-c2ccc(Cl)cc2OC)cc1C1=C(O)C(C)(C)C(=O)C(C)(C)C1=O [Compound B-25] | 0%
2 | CCc1ccc(-c2ccc(Cl)c(C#N)c2)cc1C1=C(O)C(C)(C)C(=O)C(C)(C)C1=O [Compound B-27] | 0%
3 | CCc1ccc(-c2cnc(Cl)cc2C)cc1C1=C(O)C(C)(C)C(=O)C(C)(C)C1=O [Compound B-28] | 0%

The compounds below were run on Amaranthus retroflexus (AMARE) in the same assay as above. Conditions: 312 h, rate 250 g/ha, evaluated after 13 days, read-out: Pre-emergence activity AMARE (100=total damage to plant; 0=no damage to plant).
Type: in vivo
Procedure, shortened: as §1

Row | SMILES | pest or weed control at 250 g/ha
4 | CCc1ccc(-c2ccc(Cl)cc2OC)cc1C1=C(O)C(C)(C)C(=O)C(C)(C)C1=O [Compound B-25] | 0%
5 | CCc1ccc(-c2ccc(Cl)c(C#N)c2)cc1C1=C(O)C(C)(C)C(=O)C(C)(C)C1=O [Compound B-27] | 0%
6 | CCc1ccc(-c2cnc(Cl)cc2C)cc1C1=C(O)C(C)(C)C(=O)C(C)(C)C1=O [Compound B-28] | 0%

These compounds were tested on Solanum nigrum (SOLNI) in the same assay as above. Conditions: 312 h, rate 250 g/ha, evaluated after 13 days, read-out: Pre-emergence activity SOLNI (100=total damage to plant; 0=no damage to plant).
Type: in vivo
Procedure, shortened: as §1

Row | SMILES | pest or weed control at 250 g/ha
7 | CCc1ccc(-c2ccc(Cl)cc2OC)cc1C1=C(O)C(C)(C)C(=O)C(C)(C)C1=O [Compound B-25] | 0%
8 | CCc1ccc(-c2ccc(Cl)c(C#N)c2)cc1C1=C(O)C(C)(C)C(=O)C(C)(C)C1=O [Compound B-27] | 0%
9 | CCc1ccc(-c2cnc(Cl)cc2C)cc1C1=C(O)C(C)(C)C(=O)C(C)(C)C1=O [Compound B-28] | 0%

Each compound was assayed on Avena fatua (AVEFA) in the same assay as above. Conditions: 312 h, rate 250 g/ha, evaluated after 13 days, read-out: Pre-emergence activity AVEFA (100=total damage to plant; 0=no damage to plant).
Type: in vivo
Procedure, shortened: as §1

Row | SMILES | pest or weed control at 250 g/ha
10 | CCc1ccc(-c2ccc(Cl)cc2OC)cc1C1=C(O)C(C)(C)C(=O)C(C)(C)C1=O [Compound B-25] | 0%
11 | CCc1ccc(-c2ccc(Cl)c(C#N)c2)cc1C1=C(O)C(C)(C)C(=O)C(C)(C)C1=O [Compound B-27] | 0%
12 | CCc1ccc(-c2cnc(Cl)cc2C)cc1C1=C(O)C(C)(C)C(=O)C(C)(C)C1=O [Compound B-28] | 0%

What follows are compounds tested on Setaria faberi (SETFA) in the same assay as above. Conditions: 312 h, rate 250 g/ha, evaluated after 13 days, read-out: Pre-emergence activity SETFA (100=total damage to plant; 0=no damage to plant).
Type: in vivo
Procedure, shortened: as §1

Row | SMILES | pest or weed control at 250 g/ha
13 | CCc1ccc(-c2ccc(Cl)cc2OC)cc1C1=C(O)C(C)(C)C(=O)C(C)(C)C1=O [Compound B-25] | 0%
14 | CCc1ccc(-c2ccc(Cl)c(C#N)c2)cc1C1=C(O)C(C)(C)C(=O)C(C)(C)C1=O [Compound B-27] | 0%
15 | CCc1ccc(-c2cnc(Cl)cc2C)cc1C1=C(O)C(C)(C)C(=O)C(C)(C)C1=O [Compound B-28] | 0%

The compounds below were run on Echinochloa crus-galli (ECHCG) in the same assay as above. Conditions: 312 h, rate 250 g/ha, evaluated after 13 days, read-out: Pre-emergence activity ECHCG (100=total damage to plant; 0=no damage to plant).
Type: in vivo
Procedure, shortened: as §1

Row | SMILES | pest or weed control at 250 g/ha
16 | CCc1ccc(-c2ccc(Cl)cc2OC)cc1C1=C(O)C(C)(C)C(=O)C(C)(C)C1=O [Compound B-25] | 0%
17 | CCc1ccc(-c2ccc(Cl)c(C#N)c2)cc1C1=C(O)C(C)(C)C(=O)C(C)(C)C1=O [Compound B-27] | 0%
18 | CCc1ccc(-c2cnc(Cl)cc2C)cc1C1=C(O)C(C)(C)C(=O)C(C)(C)C1=O [Compound B-28] | 0%

These compounds were tested on Alopecurus myosuroides (ALOMY) (assay: Example B post-emergence herbicidal activity, glasshouse pot test). Conditions: 312 h, rate 250 g/ha, evaluated after 13 days, read-out: Post-emergence activity ALOMY (100=total damage to plant; 0=no damage to plant).
Type: in vivo
Procedure, shortened: as §1

Row | SMILES | pest or weed control at 250 g/ha
19 | CCc1ccc(-c2ccc(Cl)cc2OC)cc1C1=C(O)C(C)(C)C(=O)C(C)(C)C1=O [Compound B-25] | 20%
20 | CCc1ccc(-c2ccc(Cl)c(C#N)c2)cc1C1=C(O)C(C)(C)C(=O)C(C)(C)C1=O [Compound B-27] | 70%
21 | CCc1ccc(-c2cnc(Cl)cc2C)cc1C1=C(O)C(C)(C)C(=O)C(C)(C)C1=O [Compound B-28] | 0%

These compounds were tested on Amaranthus retroflexus (AMARE) in the same assay as above. Conditions: 312 h, rate 250 g/ha, evaluated after 13 days, read-out: Post-emergence activity AMARE (100=total damage to plant; 0=no damage to plant).
Type: in vivo
Procedure, shortened: as §1

Row | SMILES | pest or weed control at 250 g/ha
22 | CCc1ccc(-c2ccc(Cl)cc2OC)cc1C1=C(O)C(C)(C)C(=O)C(C)(C)C1=O [Compound B-25] | 0%
23 | CCc1ccc(-c2ccc(Cl)c(C#N)c2)cc1C1=C(O)C(C)(C)C(=O)C(C)(C)C1=O [Compound B-27] | 0%
24 | CCc1ccc(-c2cnc(Cl)cc2C)cc1C1=C(O)C(C)(C)C(=O)C(C)(C)C1=O [Compound B-28] | 0%

The compounds below were run on Solanum nigrum (SOLNI) in the same assay as above. Conditions: 312 h, rate 250 g/ha, evaluated after 13 days, read-out: Post-emergence activity SOLNI (100=total damage to plant; 0=no damage to plant).
Type: in vivo
Procedure, shortened: as §1

Row | SMILES | pest or weed control at 250 g/ha
25 | CCc1ccc(-c2ccc(Cl)cc2OC)cc1C1=C(O)C(C)(C)C(=O)C(C)(C)C1=O [Compound B-25] | 0%
26 | CCc1ccc(-c2ccc(Cl)c(C#N)c2)cc1C1=C(O)C(C)(C)C(=O)C(C)(C)C1=O [Compound B-27] | 0%
27 | CCc1ccc(-c2cnc(Cl)cc2C)cc1C1=C(O)C(C)(C)C(=O)C(C)(C)C1=O [Compound B-28] | 0%

These compounds were tested on Avena fatua (AVEFA) in the same assay as above. Conditions: 312 h, rate 250 g/ha, evaluated after 13 days, read-out: Post-emergence activity AVEFA (100=total damage to plant; 0=no damage to plant).
Type: in vivo
Procedure, shortened: as §1

Row | SMILES | pest or weed control at 250 g/ha
28 | CCc1ccc(-c2ccc(Cl)cc2OC)cc1C1=C(O)C(C)(C)C(=O)C(C)(C)C1=O [Compound B-25] | 0%
29 | CCc1ccc(-c2ccc(Cl)c(C#N)c2)cc1C1=C(O)C(C)(C)C(=O)C(C)(C)C1=O [Compound B-27] | 0%
30 | CCc1ccc(-c2cnc(Cl)cc2C)cc1C1=C(O)C(C)(C)C(=O)C(C)(C)C1=O [Compound B-28] | 0%

Each compound was assayed on Setaria faberi (SETFA) in the same assay as above. Conditions: 312 h, rate 250 g/ha, evaluated after 13 days, read-out: Post-emergence activity SETFA (100=total damage to plant; 0=no damage to plant).
Type: in vivo
Procedure, shortened: as §1

Row | SMILES | pest or weed control at 250 g/ha
31 | CCc1ccc(-c2ccc(Cl)cc2OC)cc1C1=C(O)C(C)(C)C(=O)C(C)(C)C1=O [Compound B-25] | 20%
32 | CCc1ccc(-c2ccc(Cl)c(C#N)c2)cc1C1=C(O)C(C)(C)C(=O)C(C)(C)C1=O [Compound B-27] | 60%
33 | CCc1ccc(-c2cnc(Cl)cc2C)cc1C1=C(O)C(C)(C)C(=O)C(C)(C)C1=O [Compound B-28] | 70%

What follows are compounds tested on Echinochloa crus-galli (ECHCG) in the same assay as above. Conditions: 312 h, rate 250 g/ha, evaluated after 13 days, read-out: Post-emergence activity ECHCG (100=total damage to plant; 0=no damage to plant).
Type: in vivo
Procedure, shortened: as §1

Row | SMILES | pest or weed control at 250 g/ha
34 | CCc1ccc(-c2ccc(Cl)cc2OC)cc1C1=C(O)C(C)(C)C(=O)C(C)(C)C1=O [Compound B-25] | 70%
35 | CCc1ccc(-c2ccc(Cl)c(C#N)c2)cc1C1=C(O)C(C)(C)C(=O)C(C)(C)C1=O [Compound B-27] | 80%
36 | CCc1ccc(-c2cnc(Cl)cc2C)cc1C1=C(O)C(C)(C)C(=O)C(C)(C)C1=O [Compound B-28] | 70%
